Laboratory results: ChEMBL document CHEMBL1201862, “PubChem BioAssay data set” (2004)
The source made the active and inactive calls.

Legend:
[1] = molecular target: Cytochrome P450 3A4 (Homo sapiens, UniProt P08684);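 also: CYP3A4 tested as one member of a cytochrome P450 panel screen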
[2] = molecular target: Cytochrome P450 2C19 (Homo sapiens, UniProt P33261); assay: Cytochrome panel assay with activity outcomes. Panel member name: p450-cyp2c19 Compounds with AC50 equal or less than 10 uM are considered active; assay type: functional; conditions: read-out: AC50
[3] = viability of PTEN-deleted HCT116 cells – cell-based, HCT116 PTEN knockout, dose response (AID 1047); assay type: functional;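 also: HCT116 colon tumor cells with PTEN knocked out; cells exposed to compound for 60 hours before readout; potency for loss of cell viability measured by luminescence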
[4] = viability of HCT116 lacking mutant beta-catenin – cell-based, human colon tumor, dose response (AID 1045); assay type: functional;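 also: HCT116 colon tumor cells with beta catenin knocked out; cells exposed to compound for 60 hours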
[5] = HIV-1 AD8 envelope cell-cell fusion blockers – cherry-pick, dose response (AID 652062); assay type: functional, cell-based;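 also: luciferase signal from cell-cell fusion driven by HIV-1 clade B AD8 Env; potency is for inhibitors of fusion seen as a drop in luminescence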
[6] = molecular target: Luciferin 4-monooxygenase (Photinus pyralis, UniProt P08659); assay: Counter Screen for Luciferase-based Assay Positives. [Related pubchem assays: 620, 618, 411 ]
[7] = alpha-synuclein stem-loop luciferase translation blockers – H4 neuroglioma cells, luminescence, confirmation (AID 1988); assay type: functional, cell-based
[8] = molecular target: T1, Heat shock factor protein 1 (Mus musculus, UniProt P38532); assay: decrease of HSF1-responsive luciferase luminescence – cell-based, NIH3T3, dose retest, confirmation (AID 2382); assay type: functional;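 also: NIH3T3 fibroblasts with HSF1-driven luciferase reporter stressed by proteasome inhibitor MG132; luminescence from HSF1-driven luciferase expression after 8 hours of MG132 stress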
T1 sequence (P38532 whole entry): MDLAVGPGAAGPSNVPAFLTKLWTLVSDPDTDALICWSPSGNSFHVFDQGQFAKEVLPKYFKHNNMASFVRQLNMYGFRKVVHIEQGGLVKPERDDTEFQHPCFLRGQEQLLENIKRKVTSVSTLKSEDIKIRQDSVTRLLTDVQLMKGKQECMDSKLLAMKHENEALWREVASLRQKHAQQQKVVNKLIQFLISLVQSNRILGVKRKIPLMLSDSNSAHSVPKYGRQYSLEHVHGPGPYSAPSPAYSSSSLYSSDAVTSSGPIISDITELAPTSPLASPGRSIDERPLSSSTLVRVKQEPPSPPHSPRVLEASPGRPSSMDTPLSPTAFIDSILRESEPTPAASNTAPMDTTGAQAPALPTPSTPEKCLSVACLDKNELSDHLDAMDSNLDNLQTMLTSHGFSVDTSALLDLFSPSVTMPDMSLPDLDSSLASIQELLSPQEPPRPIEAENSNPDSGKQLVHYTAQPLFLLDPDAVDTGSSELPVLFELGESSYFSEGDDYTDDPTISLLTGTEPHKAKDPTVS

[9] = molecular target: T2, Microphthalmia-associated transcription factor (Homo sapiens, UniProt O75030); assay: reducers of TRPM1 reporter luminescence, concentration series – cell-based, SK-MEL-5, cherry-picked, set 3, MITF inhibitor project, dose response (AID 493073); assay type: functional;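 also: SK-MEL-5 melanoma cells with luciferase driven by the MITF target TRPM1 promoter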
T2 sequence (O75030 whole entry): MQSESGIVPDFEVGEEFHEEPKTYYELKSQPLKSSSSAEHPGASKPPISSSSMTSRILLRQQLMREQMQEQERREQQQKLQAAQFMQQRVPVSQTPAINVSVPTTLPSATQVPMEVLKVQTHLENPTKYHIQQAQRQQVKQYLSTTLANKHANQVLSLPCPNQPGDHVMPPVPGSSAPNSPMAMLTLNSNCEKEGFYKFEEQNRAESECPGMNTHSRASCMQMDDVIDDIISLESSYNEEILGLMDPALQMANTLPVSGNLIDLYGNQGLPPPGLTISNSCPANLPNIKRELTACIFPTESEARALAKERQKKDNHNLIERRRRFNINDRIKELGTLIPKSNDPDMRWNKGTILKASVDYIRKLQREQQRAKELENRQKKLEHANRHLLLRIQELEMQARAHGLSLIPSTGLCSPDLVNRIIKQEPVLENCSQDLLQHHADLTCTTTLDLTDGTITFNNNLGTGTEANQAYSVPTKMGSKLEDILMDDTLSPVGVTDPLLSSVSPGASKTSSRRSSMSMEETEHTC

[10] = test system: Jurkat; assay: blockers of NF-kB activation in T cells – Jurkat, luciferase reporter, luminescence, B- and T-cell, dose response (AID 489004); assay type: functional, cell-based; conditions: Homo sapiens;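 also: NF-kB luciferase reporter Jurkat cells stimulated with PMA plus ionomycin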
[11] = alpha-synuclein stem-loop translation blockers – luminescence, H4 neuroglioblastoma cells, dose confirmation, confirmation (AID 2454); assay type: functional, cell-based;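 also: H4 neuroglioblastoma cells carrying an alpha-synuclein 5'UTR luciferase reporter; potency for inhibition of the luciferase signal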
[12] = luciferase reporter signal reduction – luminescence, H4-C neuroglioblastoma cells, dose response (AID 2458); assay type: functional, cell-based;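 also: H4 neuroglioblastoma cells stably carrying a luciferase reporter gene fusion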
[13] = blockers of HIV-1 ZM109 envelope-driven cell-cell fusion – HeLa effector, CEM target cells, luciferase, cherry-pick, dose response (AID 652058); assay type: functional, cell-based;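 also: luciferase signal from HIV-1 Env mediated cell-cell fusion of effector and target cells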
[14] = test system: HT-1080; assay: HT1080 cell viability loss – fluorescence readout (AID 620); assay type: functional, cell-based; conditions: Homo sapiens
[15] = cells; assay type: functional, cell-based
[16] = HEK-293T viability loss, compound-treated – cell-based, uHTS hits, cytotoxicity control for B/T-cell NF-kB inhibitor project, dose response (AID 489019); assay type: functional;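 also: IC50 reflects cytotoxicity as loss of cell viability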
[17] = off-target signal loss in HeLa-CEM21 co-culture – HeLa F-luc CTL cells, cherry-picked, counter-screen for HIV-1 Env fusion inhibitor project, dose response (AID 652040); assay type: functional, cell-based;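 also: potency for signal decrease marking cytotoxic or nonspecific inhibition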
[18] = luciferase reporter signal suppression in cells – H4 neuroglioma cells, luminescence, dose response (AID 1990); assay type: functional, cell-based
[19] = blockers of HIV-1 envelope-mediated cell-cell fusion – cherry-pick, dose response (AID 652057); assay type: functional, cell-based
[20] = reduction of Shn3 3'UTR-driven luciferase in osteoblasts – cell-based, Clone20 osteoblasts, firefly luciferase, cherry-picked, dose response (AID 624132); assay type: functional;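 also: firefly luciferase luminescence from reporter carrying the Shn3 3'UTR in osteoblasts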
[21] = microbe, parasite or virus in culture; assay type: functional; conditions: Mycobacterium tuberculosis
[22] = molecular target: Beta-galactosidase (Escherichia coli, UniProt Q8VNN2); assay: detection-enzyme interference by beta-gal modulators – biochemical, E. coli enzyme, set 3, artefact control for CCR6 antagonist project, dose response (AID 504712); assay type: functional
[23] = Luminescence Cell-Based Dose Retest to Confirm Inhibitors of Cancer Stem Cells. [Related pubchem assays (depositor defined):AID2717, AID2721]; assay type: functional; conditions: Homo sapiens
[24] = Counterscreen for AddAB inhibitors: absorbance-based bacterial cell-based high throughput dose response assay for inhibitors of bacterial viability. [Related pubchem assays (depositor defined):AID435030, AID449728, AID449731, AID488942, AID488955, AID488956]; assay type: functional
[25] = loss of viability in HepG2 cells – cell-based, CellTiter-Glo, cherry-picked, cytotoxicity control for Shn3 inhibitor project, dose response (AID 624134); assay type: functional
[26] = molecular target: Exodeoxyribonuclease V (Escherichia coli (strain K12), UniProt P04993+P07648+P08394); assay: RecBCD inhibition via phage-restricted bacterial growth – absorbance, V66 E. coli, mutant T4 phage, counter-screen for AddAB inhibitor project, dose response (AID 492957); assay type: functional, cell-based, Escherichia coli str. K-12 substr. MG1655
[27] = non-specific 3'UTR reporter inhibition in Clone20-Shn3RL – cell-based, Renilla luciferase, cherry-picked, counter-screen for Shn3 inhibitor project, dose response (AID 624133); assay type: functional
[28] = molecular target: Lysine-specific demethylase 4C (Homo sapiens, UniProt Q9H3R0); assay: inhibition of JMJD2C H3K9me3 demethylation – biochemical, DELFIA europium, cherry-picked samples, dose response (AID 488835); assay type: functional
[29] = molecular target: T3, RNA-binding protein pos-1 (Caenorhabditis elegans, UniProt G5EF15); assay: disruptors of C. elegans POS-1 RNA interaction – biochemical, fluorescence polarization, dose response (AID 1964);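 also: purified POS-1 fused to maltose binding protein made in E. coli; potency of compounds blocking POS-1 binding to fluorescent RNA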
T3 sequence (G5EF15 whole entry): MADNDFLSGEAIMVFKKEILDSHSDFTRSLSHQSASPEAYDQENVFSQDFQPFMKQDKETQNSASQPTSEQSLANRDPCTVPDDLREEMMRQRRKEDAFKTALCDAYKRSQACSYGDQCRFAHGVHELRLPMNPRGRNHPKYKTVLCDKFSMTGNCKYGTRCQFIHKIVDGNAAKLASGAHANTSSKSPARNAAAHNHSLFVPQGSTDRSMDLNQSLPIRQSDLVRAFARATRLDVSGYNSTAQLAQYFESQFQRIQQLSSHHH

[30] = molecular target: T4, Zinc finger protein mex-5 (Caenorhabditis elegans, UniProt Q9XUB2); assay: potency of MEX-5 RNA-binding blockers – biochemical, C. elegans, fluorescence polarization, dose response (AID 1960)
T4 sequence (Q9XUB2 whole entry): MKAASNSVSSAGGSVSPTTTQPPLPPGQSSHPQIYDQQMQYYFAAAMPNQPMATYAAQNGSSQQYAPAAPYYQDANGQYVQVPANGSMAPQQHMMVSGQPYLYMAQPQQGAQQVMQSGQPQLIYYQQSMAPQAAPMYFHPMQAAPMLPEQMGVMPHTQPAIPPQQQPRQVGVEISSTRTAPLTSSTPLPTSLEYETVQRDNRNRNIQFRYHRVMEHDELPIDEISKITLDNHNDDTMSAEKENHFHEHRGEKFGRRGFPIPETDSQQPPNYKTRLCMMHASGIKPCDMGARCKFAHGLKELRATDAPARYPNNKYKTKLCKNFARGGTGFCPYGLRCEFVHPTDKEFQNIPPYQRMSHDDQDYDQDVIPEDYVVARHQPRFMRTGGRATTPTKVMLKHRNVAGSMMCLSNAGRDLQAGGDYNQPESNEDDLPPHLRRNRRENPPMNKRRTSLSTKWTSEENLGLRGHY

[31] = test system: Streptococcus; assay: GAS UMAA2166 growth inhibition – luminescence, BacTiterGlo, counter-screen for streptokinase expression inhibitor project, dose response (AID 1915); assay type: functional, organism-based;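 also: potency for reduction of bacterial viability or growth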
[32] = molecular target: T5, Serine/threonine-protein phosphatase (Candida dubliniensis (strain CD36 / CBS 7987 / NCPF 3949 / NRRLY-17841) (Yeast), UniProt B9W6M3); assay: Fluorescence Cell-Based Secondary Assay to Identify Inhibitors of Calcineurin. [Related pubchem assays (depositor defined):AID1979, AID2007]; assay type: functional
T5 sequence (B9W6M3 whole entry): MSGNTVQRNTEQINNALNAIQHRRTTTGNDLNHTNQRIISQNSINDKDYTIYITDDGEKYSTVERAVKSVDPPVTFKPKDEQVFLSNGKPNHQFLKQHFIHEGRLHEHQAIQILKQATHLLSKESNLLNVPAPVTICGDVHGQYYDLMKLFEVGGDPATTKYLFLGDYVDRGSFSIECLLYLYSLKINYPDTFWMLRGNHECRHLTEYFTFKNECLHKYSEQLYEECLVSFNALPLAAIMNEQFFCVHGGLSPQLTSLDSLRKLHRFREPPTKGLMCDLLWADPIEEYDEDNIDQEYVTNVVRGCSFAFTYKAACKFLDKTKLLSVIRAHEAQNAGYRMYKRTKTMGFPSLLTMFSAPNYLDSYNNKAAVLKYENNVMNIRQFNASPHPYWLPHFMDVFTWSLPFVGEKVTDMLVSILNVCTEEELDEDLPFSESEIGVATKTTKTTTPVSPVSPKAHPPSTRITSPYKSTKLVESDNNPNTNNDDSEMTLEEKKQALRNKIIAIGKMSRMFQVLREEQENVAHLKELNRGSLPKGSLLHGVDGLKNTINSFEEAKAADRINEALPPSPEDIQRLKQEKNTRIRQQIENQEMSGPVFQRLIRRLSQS

[33] = test system: INS1; assay: INS-1E survival protection against cytokine death – cell-based, luminescence, retest, dose response (AID 449756); assay type: functional; conditions: Rattus norvegicus;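 also: cell death triggered by IL-1 beta plus TNF-alpha plus IFN-gamma mixture; protective hits raise ATP signal compared with cytokine alone wells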
[34] = test system: Streptococcus sp. 'group A'; assay: Streptococcus pyogenes SK(-)GAS viability under kanamycin – luminescence, BacTiterGlo, confirmation, counter-screen for streptokinase expression inhibitor project, dose response (AID 1900); assay type: functional, organism-based
[35] = molecular target: T5, Serine/threonine-protein phosphatase; assay: blockers of CaCl2-induced CDRE-lacZ signaling – S. cerevisiae, luminescence, secondary, dose response (AID 2388); assay type: functional, cell-based;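 also: yeast reporter cells carrying a calcineurin-responsive lacZ construct stimulated with calcium chloride; luminescent beta-galactosidase reporter signal in whole cells rather than isolated phosphatase activity; potency for inhibition where a drop in reporter signal means calcineurin blockade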
[36] = fluconazole-exposed Candida albicans growth modulators – fluorescence, retest, confirmation (AID 2467); assay type: functional, cell-based
[37] = molecular target: ATP-dependent molecular chaperone HSP82 (Candida albicans (strain WO-1) (Yeast), UniProt C4YTQ8); assay: steroid-induced GRE reporter decrease in yeast – S. cerevisiae, luminescence, Hsp90 inhibitor project, dose response (AID 2400); assay type: functional, cell-based;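 also: beta-galactosidase luminescence from glucocorticoid response element reporter as proxy for Hsp90 function; inhibitor potency where signal loss means Hsp90 inhibition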
[38] = NIH-3T3 fibroblast cytotoxicity, dose response, cytotoxicity control, cell-based, fluorescence, Alamar Blue, secondary assay (AID 2327); assay type: functional;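 also: NIH-3T3 mouse fibroblasts cultured with fluconazole at 8 µg/mL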
[39] = Luminescence Cell-Based Dose Response HTS to Identify Inhibitors of 5'UTR Stem-Loop Driven Prion Protein mRNA Translation in H4 Neuroglioblastoma Cells. [Related pubchem assays: 1827 (Project Summary), 1813 (Primary HTS)]; assay type: functional

Sequence of Cytochrome P450 3A4 (P08684 whole entry): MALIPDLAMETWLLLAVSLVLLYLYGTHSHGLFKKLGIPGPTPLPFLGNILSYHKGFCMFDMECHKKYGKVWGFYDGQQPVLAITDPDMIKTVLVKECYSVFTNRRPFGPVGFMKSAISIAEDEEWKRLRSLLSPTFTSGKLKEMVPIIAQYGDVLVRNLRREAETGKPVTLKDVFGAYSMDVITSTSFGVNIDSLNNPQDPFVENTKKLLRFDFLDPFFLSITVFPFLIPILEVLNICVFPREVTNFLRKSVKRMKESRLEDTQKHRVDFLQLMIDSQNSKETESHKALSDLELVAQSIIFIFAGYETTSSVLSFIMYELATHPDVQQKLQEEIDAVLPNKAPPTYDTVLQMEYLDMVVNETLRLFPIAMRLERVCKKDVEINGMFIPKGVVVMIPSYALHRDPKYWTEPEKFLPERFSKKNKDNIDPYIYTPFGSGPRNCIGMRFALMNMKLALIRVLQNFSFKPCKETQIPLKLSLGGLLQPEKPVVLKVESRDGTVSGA
Sequence of Cytochrome P450 2C19 (P33261 whole entry): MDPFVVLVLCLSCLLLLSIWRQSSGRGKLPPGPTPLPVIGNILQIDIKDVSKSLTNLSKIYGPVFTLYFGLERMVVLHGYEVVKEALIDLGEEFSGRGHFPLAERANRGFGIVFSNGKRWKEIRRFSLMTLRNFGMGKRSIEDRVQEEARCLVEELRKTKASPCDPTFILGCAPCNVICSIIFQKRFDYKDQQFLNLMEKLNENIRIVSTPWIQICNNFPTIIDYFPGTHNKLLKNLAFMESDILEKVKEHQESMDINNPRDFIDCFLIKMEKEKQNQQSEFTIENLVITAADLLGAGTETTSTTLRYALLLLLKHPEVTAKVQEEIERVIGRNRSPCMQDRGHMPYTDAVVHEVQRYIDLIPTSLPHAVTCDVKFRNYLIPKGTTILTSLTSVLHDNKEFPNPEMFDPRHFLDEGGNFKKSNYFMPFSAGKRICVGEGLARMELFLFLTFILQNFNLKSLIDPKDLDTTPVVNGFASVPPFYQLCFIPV
Sequence of Lysine-specific demethylase 4C (Q9H3R0 whole entry, the tested form may be a part): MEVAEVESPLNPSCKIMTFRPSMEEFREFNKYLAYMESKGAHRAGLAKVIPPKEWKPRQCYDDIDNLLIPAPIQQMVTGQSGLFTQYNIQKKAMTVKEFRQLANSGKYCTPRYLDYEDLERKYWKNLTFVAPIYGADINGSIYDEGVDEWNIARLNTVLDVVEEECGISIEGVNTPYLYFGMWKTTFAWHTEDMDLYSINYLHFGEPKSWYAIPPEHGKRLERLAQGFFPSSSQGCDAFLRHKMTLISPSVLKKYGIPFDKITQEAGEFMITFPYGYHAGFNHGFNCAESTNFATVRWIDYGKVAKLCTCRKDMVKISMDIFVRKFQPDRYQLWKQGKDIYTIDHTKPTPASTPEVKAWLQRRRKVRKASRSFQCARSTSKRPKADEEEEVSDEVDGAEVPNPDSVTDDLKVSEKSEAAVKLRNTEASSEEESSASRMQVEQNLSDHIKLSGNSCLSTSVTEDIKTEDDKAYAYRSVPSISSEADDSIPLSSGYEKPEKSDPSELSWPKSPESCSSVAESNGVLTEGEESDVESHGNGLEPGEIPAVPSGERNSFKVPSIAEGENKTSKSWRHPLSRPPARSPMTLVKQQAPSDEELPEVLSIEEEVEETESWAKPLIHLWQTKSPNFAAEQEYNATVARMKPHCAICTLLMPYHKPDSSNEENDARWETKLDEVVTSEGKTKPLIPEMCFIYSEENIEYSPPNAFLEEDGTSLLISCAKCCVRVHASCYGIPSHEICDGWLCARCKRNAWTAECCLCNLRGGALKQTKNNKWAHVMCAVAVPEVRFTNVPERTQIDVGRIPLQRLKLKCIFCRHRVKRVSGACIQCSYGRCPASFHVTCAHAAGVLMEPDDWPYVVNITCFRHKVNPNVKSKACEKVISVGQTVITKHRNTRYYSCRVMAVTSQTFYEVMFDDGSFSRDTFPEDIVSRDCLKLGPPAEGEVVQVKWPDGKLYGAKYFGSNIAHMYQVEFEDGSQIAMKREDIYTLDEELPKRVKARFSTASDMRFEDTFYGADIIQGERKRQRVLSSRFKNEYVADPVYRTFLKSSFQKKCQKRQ
Sequence of Luciferin 4-monooxygenase (P08659 whole entry): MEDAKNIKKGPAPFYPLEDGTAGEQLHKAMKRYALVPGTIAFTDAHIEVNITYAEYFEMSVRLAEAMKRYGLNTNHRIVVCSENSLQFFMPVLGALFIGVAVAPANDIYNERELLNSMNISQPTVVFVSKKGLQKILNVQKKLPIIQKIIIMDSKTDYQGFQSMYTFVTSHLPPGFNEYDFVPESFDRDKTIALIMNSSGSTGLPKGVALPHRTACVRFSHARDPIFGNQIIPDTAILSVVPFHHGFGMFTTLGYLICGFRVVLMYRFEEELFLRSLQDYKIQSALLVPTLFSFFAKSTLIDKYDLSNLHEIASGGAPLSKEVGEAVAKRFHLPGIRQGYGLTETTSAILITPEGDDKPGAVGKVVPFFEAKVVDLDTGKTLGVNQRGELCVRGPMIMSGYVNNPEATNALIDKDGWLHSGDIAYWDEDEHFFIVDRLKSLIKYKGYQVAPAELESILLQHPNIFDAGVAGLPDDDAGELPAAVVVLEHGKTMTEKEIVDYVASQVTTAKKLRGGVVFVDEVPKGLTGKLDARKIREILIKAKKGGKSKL
Sequence of ATP-dependent molecular chaperone HSP82 (C4YTQ8 whole entry): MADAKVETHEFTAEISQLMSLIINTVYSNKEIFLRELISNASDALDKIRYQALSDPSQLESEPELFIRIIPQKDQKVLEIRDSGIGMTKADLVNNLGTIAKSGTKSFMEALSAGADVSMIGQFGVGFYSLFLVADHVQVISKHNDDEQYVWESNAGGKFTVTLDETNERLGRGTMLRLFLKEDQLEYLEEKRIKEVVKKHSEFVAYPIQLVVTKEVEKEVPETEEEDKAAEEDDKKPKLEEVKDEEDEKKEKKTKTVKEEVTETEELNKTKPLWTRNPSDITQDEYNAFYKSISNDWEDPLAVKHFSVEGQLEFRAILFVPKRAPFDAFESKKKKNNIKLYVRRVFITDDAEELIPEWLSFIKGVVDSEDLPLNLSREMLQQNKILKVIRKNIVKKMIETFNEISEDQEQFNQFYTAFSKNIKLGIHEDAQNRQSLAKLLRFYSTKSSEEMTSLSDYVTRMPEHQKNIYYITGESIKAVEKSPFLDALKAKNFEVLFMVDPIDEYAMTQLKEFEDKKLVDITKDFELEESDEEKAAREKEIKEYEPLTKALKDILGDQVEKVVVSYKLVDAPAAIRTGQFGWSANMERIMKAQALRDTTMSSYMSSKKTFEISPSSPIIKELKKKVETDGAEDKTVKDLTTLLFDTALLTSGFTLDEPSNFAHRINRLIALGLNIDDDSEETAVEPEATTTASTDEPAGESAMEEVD
Sequence of Beta-galactosidase (Q8VNN2 whole entry): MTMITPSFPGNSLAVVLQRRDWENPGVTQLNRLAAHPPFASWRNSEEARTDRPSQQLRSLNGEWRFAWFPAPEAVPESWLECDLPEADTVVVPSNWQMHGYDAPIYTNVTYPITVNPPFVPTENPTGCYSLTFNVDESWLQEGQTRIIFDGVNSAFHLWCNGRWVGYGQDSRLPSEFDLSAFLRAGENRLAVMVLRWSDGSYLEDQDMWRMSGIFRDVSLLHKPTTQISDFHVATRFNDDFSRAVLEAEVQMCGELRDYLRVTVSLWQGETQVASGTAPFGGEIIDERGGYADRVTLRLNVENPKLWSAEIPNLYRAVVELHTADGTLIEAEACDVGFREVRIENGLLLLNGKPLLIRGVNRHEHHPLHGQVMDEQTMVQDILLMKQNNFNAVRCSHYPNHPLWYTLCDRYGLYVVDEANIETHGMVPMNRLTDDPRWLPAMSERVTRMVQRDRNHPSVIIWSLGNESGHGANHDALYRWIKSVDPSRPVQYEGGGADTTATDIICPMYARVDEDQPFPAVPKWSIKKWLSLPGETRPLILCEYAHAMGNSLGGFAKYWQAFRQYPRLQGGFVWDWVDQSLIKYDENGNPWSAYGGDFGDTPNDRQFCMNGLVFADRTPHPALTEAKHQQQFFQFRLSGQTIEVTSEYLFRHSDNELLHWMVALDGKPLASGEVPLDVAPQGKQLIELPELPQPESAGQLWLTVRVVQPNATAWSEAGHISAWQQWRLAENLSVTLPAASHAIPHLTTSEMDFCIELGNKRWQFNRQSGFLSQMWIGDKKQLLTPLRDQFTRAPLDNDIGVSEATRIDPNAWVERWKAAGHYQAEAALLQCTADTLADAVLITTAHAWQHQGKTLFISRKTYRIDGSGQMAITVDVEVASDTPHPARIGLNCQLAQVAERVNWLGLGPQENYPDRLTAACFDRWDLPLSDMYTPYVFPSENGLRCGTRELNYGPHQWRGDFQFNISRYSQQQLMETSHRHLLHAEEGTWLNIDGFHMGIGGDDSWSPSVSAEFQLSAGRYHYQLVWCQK

Cc1sc(NC(=O)c2ccc(OCC(C)C)cc2)c(C(N)=O)c1-c1ccc(Cl)cc1Cl
inconclusive: AC50 [1] | AC50 [2] 1.78 µM
active: EC50 [3] 18.5 µM | EC50 [4] 48.2 µM

CC(C)(C)c1ccc(C(=O)Nc2ccc(CC(=O)O)cc2)o1
> 50 µM (not active): EC50 [14]
active: AC50 [5] < 0.26 µM | EC50 [6] 0.57 µM | EC50 [7] < 0.1 µM | EC50 [8] < 0.16 µM | AC50 [9] 0.329 µM | IC50 [10] < 0.16 µM | EC50 [11] 0.113 µM | EC50 [12] 0.106 µM | AC50 [13] < 0.26 µM | EC50 [15] 0.344 µM | AC50 [17] 0.558 µM | EC50 [18] < 0.1 µM | AC50 [19] 0.392 µM
inactive: IC50 [16] > 80 µM

O=C(Nc1ccc([N+](=O)[O-])cc1)Nc1ccc(OC(F)F)c(Cl)c1
inactive: IC50 [22] > 66.6 µM | IC50 [24] > 119 µM | IC50 [26] > 119 µM
active: AC50 [20] 3.59 µM | CC50 [21] 2.83 µM | AC50 [23] 1.22 µM | AC50 [25] 6.24 µM | EC50 [3] 1.37 µM | EC50 [4] 1.9 µM | AC50 [27] 4.77 µM

C=CCN1C(=O)NC(=O)/C(=C/c2ccc(OC)c(CSc3ccccn3)c2)C1=O
> 300 µM (not active): EC50 [29] | EC50 [30]
active: AC50 [28] 40.1 µM

CC(C)COCc1ccc(O)c2ncccc12
inactive: EC50 [32] > 285 µM | EC50 [35] > 180 µM | EC50 [37] > 150 µM
active: EC50 [31] 5.43 µM | AC50 [33] 2.35 µM | EC50 [34] 1.67 µM | CC50 [21] 10.2 µM | EC50 [7] 9.38 µM | EC50 [36] 0.294 µM | EC50 [38] 31.8 µM | EC50 [39] 10.9 µM | EC50 [18] 12.1 µM

O=C(c1ccco1)N1CCC2(CC1)CCN(c1ccccn1)CC2
inconclusive: AC50 [1] | AC50 [2] 31.6 µM
